Target: T1, tyrosyl tRNA synthetase (TyrRS) (Homo sapiens, UniProt P54577)
T1 sequence (P54577 1-528): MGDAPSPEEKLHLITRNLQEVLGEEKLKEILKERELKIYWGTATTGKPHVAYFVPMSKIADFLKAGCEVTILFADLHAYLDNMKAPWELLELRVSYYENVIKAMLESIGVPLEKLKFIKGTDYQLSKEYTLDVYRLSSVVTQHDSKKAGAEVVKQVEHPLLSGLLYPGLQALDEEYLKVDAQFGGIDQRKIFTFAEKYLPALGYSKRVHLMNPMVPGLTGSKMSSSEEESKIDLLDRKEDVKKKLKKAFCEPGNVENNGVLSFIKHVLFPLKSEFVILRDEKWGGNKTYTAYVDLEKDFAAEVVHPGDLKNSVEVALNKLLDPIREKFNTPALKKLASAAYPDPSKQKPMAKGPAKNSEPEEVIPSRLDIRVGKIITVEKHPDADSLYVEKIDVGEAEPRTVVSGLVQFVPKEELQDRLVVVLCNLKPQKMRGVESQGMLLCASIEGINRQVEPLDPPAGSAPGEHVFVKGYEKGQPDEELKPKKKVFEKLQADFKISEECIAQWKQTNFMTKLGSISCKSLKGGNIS
Assay: X-ray co-crystal structure
Assay type: biochemical

Ki: 22 µM
SMILES: Oc1ccc(/C=C/c2cc(O)cc(O)c2)cc1 [RSV, resveratrol]

From article PMC4368482 (Nature, 2014)
